# Patent publication US10849897B2, “Pyridyl derivatives as bromodomain inhibitors” (GLAXOSMITHKLINE INTELLECTUAL PROPERTY (NO.2) LIMITED, priority 2017, dated 2020)
# What was measured:
# BRD4 BD1 and BRD4 BD2 = BRD4 BD1 and BRD4 BD2 TR-FRET assays (selectivity for BRD4 BD2 over BRD4 BD1); assay type: binding, Human; conditions: for selectivity for BRD4 BD2 over BRD4 BD1: BRD4 BD2 pIC50 − BRD4 BD1 pIC50, in at least one of the TR-FRET assays
# Protocol: (§1) Bromodomain binding was assessed utilising a time resolved fluorescent resonance energy transfer (TR-FRET) competition assay. To enable this approach a known, high affinity, pan-BET interacting small molecule was labelled with Alexa Fluor® 647, which is a far-red-fluorescent dye (Reference Compound X). Reference Compound X acts as a reporter of bromodomain binding and is the acceptor fluorophore component of the TR-FRET pair. Europium chelate, conjugated to an anti-6*His antibody, was utilised as the donor fluorophore in the TR-FRET pair. The anti-6*His antibody binds selectively to a six Histidine purification epitope added to the amino-terminus of each of the BET tandem bromodomain protein constructs used in this study. A TR-FRET signal is generated when the donor and acceptor fluorophores are in close proximity, between 20-80 Å, which is enabled in this assay by binding of Reference Compound X to the bromodomain protein.
# (§2) In order to generate a TR-FRET signal, donor fluorophore is excited by a laser at λ337 nm, which subsequently leads to emission at λ618 nm. If the acceptor fluorophore is in close proximity then energy transfer can occur, which leads to emission of Alexa Fluor® 647 at λ665 nm. In the presence of competitor compound, Reference Compound X can be displaced from binding to the bromodomain. If displacement occurs, the acceptor fluorophore is no longer in proximity to the donor fluorophore, which prevents fluorescent energy transfer and, subsequently, a loss of Alexa Fluor® 647 emission at λ665 nm.
# (§3) The competition of the compounds of formula (I) with Reference Compound X for binding to the BET family (BRD2, BRD3, BRD4 and BRDT) was assessed using protein truncates spanning both bromodomain 1 (BD1) and bromodomain 2 (BD2). In order to monitor differential binding to either BD1 or BD2, single residue mutations of key tyrosines to alanine were made in the acetyl lysine binding pockets. To validate this approach, a double residue mutant tandem domain protein was produced for each of the BET family members. Utilising a Fluorescence Polarisation approach, binding affinities for each of the single and double mutants for Reference Compound X were determined. […] The affinities of the single mutated bromdomain tandem proteins for Reference Compound X were equi-potent with the corresponding non-mutated BET protein. […] In the TR-FRET competition assay, Reference Compound X is used at a concentration that is equivalent to the Kd for the non-mutated bromodomain, which ensures that no binding at the mutated bromodomain is detected.
# Recombinant Human Bromodomains [(BRD2 (1-473) (Y113A) and (Y386A), BRD3 (1-435) (Y73A) and (Y348A) BRD4 (1-477) (Y97A) and (Y390A) and BRDT (1-397) (Y66A) and (Y309A)] were expressed in E. coli cells (in pET15b vector for BRD2/3/4 and in pET28a vector for BRDT) with a 6-His tag at the N-terminal. The His-tagged Bromodomain pellet was resuspended in 50 mM HEPES (pH 7.5), 300 mM NaCl, 10 mM imidazole & 1 μL/mL protease inhibitor cocktail and extracted from the E. coli cells using sonication and purified using a nickel sepharose high performance column, the proteins were washed and then eluted with a linear gradient of 0-500 mM imidazole with buffer 50 mM HEPES (pH 7.5), 150 mM NaCl, 500 mM imidazole, over 20 column volumes. Final purification was completed by Superdex 200 prep grade size exclusion column. Purified protein was stored at −80° C. in 20 mM HEPES pH 7.5 and 100 mM NaCl. […]
# BRD4 BD2 = target: T1, BRD4 BD2 (Homo sapiens, UniProt O60885, Y97A); assay: BRD4 BD2 TR-FRET competition assay; assay type: binding; conditions: TR-FRET competition with Reference Compound X; read-out: pIC50 in the BRD4 BD2 assay (converted)
# T1 construct: BRD4 (1-477) (Y97A) and (Y390A); made in house; host or cells: E. coli (pET15b vector)
# Protocol: as §1, §2, §3
# Recombinant Human Bromodomains [(BRD2 (1-473) (Y113A) and (Y386A), BRD3 (1-435) (Y73A) and (Y348A) BRD4 (1-477) (Y97A) and (Y390A) and BRDT (1-397) (Y66A) and (Y309A)] were expressed in E. coli cells (in pET15b vector for BRD2/3/4 and in pET28a vector for BRDT) with a 6-His tag at the N-terminal. The His-tagged Bromodomain pellet was resuspended in 50 mM HEPES (pH 7.5), 300 mM NaCl, 10 mM imidazole & 1 μL/mL protease inhibitor cocktail and extracted from the E. coli cells using sonication and purified using a nickel sepharose high performance column, the proteins were washed and then eluted with a linear gradient of 0-500 mM imidazole with buffer 50 mM HEPES (pH 7.5), 150 mM NaCl, 500 mM imidazole, over 20 column volumes. Final purification was completed by Superdex 200 prep grade size exclusion column. Purified protein was stored at −80° C. in 20 mM HEPES pH 7.5 and 100 mM NaCl. Protein identity was confirmed by peptide mass fingerprinting and predicted molecular weight confirmed by mass spectrometry.
# All assay components were dissolved in an assay buffer composing of 50 mM HEPES pH 7.4, 50 mM NaCl, 5% Glycerol, 1 mM DTT and 1 mM CHAPS. Reference Compound X was diluted, in assay buffer containing 20 nM single mutant, tandem bromodomain protein, to a concentration equivalent to 2*Kd for this bromodomain. […]
# [1] = system: BET family (BRD2, BRD3, BRD4 and BRDT) tandem bromodomain proteins; assay: Fluorescence Polarisation binding of Reference Compound X to single and double mutant tandem BET proteins; design: species or system Human; conditions: single residue (Tyr to Ala) mutants
# Protocol: as §3, with “detected. […]” for “detected.”
IC50 (BRD4 BD2) [nM],Compound,selectivity for BRD4 BD2 over BRD4 BD1 (BRD4 BD1 and BRD4 BD2) [log unit],fold selective for BRD4 BD2 over BRD4 BD1 (BRD4 BD1 and BRD4 BD2; from the pIC50 difference) [fold],affinity of single mutated bromodomain tandem proteins compared with corresponding non-mutated BET protein [1]
20,"CNC(=O)c1cc(C(=O)Nc2cn[nH]c2)cc(Cc2ccccc2)n1 [Example 12, 6-Benzyl-N^2-methyl-N^4-(1H-pyrazol-4-yl)pyridine-2,4-dicarboxamide]",2.7,–,–
1000 to 10000,"CNC(=O)c1cc(C(=O)NC(C)(C)C)cc(Cc2ccccc2)n1 [Example 66, 6-Benzyl-N^4-(tert-butyl)-N^2-methylpyridine-2,4-dicarboxamide]",–,–,–
1000 to 10000,"CNC(=O)c1cc(C(=O)Nc2nncn2C)cc([C@@H](C)c2ccccc2)n1 [Example 76, (S)-N^2-Methyl-N^4-(4-methyl-4H-1,2,4-triazol-3-yl)-6-(1-phenylethyl)pyridine-2,4-dicarboxamide]",–,–,–
1000 to 10000,"CNC(=O)c1cc(C(=O)Nc2nnc(C)o2)cc([C@@H](C)c2ccccc2)n1 [Example 75, (S)-N^2-Methyl-N^4-(5-methyl-1,3,4-oxadiazol-2-yl)-6-(1-phenylethyl)pyridine-2,4-dicarboxamide]",–,–,–
15.8,"CNC(=O)c1cc(C(=O)Nc2cnn(C)c2)cc(Cc2ccccc2)n1 [Example 11, 6-Benzyl-N^2-methyl-N^4-(1-methyl-1H-pyrazol-4-yl)pyridine-2,4-dicarboxamide]",2.7,–,–
1000 to 10000,"CNC(=O)c1cc(C(=O)Nc2nc(C)no2)cc([C@@H](C)c2ccccc2)n1 [Example 74, (S)-N^2-Methyl-N^4-(3-methyl-1,2,4-oxadiazol-5-yl)-6-(1-phenylethyl)pyridine-2,4-dicarboxamide]",–,–,–
1000 to 10000,"CNC(=O)c1cc(C(=O)NCC(C)O)cc(Cc2ccccc2)n1 (racemic) [Example 61, (+/−)-6-Benzyl-N^4-(2-hydroxypropyl)-N^2-methylpyridine-2,4-dicarboxamide]",–,–,–
10,"CNC(=O)c1cc(C(=O)Nc2cn[nH]c2)cc([C@@H](C)c2ccccc2)n1 [Example 16, (S)-N^2-Methyl-6-(1-phenylethyl)-N^4-(1H-pyrazol-4-yl)pyridine-2,4-dicarboxamide]",3.0,1000,–
–,COc1ccc2c(c1)C(c1ccc(Cl)cc1)=N[C@@H](CC(=O)NCCCCCNC(=O)CCCCCC1(C)/C(=C/C=C/C=C/C3=[N+](CCCCS(=O)(=O)O)c4ccc(S(=O)(=O)O)cc4C3(C)C)N(CCCCS(=O)(=O)[O-])c3ccc(S(=O)(=O)O)cc31)c1nnc(C)n1-2 (stereo partly shown) [Reference Compound X],–,–,equi-potent
20,"CNC(=O)c1cc(C(=O)Nc2cn[nH]c2)cc(C(OC)c2ccccc2)n1 (single isomer, unassigned) [Example 55, (S*)-6-(Methoxy(phenyl)methyl)-N^2-methyl-N^4-(1H-pyrazol-4-yl)pyridine-2,4-dicarboxamide]",2.7,–,–
1000 to 10000,"CNC(=O)c1cc(C(=O)NCCOC)cc(Cc2cccc(OC)c2)n1 [Example 59, 6-(3-Methoxybenzyl)-N^4-(2-methoxyethyl)-N^2-methylpyridine-2,4-dicarboxamide]",–,–,–
